Source: publication PMC11360180, “Enhancement of Antimicrobial Function by L/D-Lysine Substitution on a Novel Broad-Spectrum Antimicrobial Peptide, Phylloseptin-TO2: A Structure-Related Activity Research Study” (Pharmaceutics, 2024)
“And” between values parts separate entries of the source, which are not always exact repeats. Identical values can stand only once. Like-named read-outs stand apart in the source and are kept apart here. Where a SMILES comes first, the peptide text is derived from it. Where no end group is shown, it is not given here. [ ]: non-standard residue; d: D form.

Columns and labels:
[1] = tested on: P. aeruginosa (ATCC 9027); format: cell-based, Pseudomonas aeruginosa
Excerpt: (§1) Seven microorganism strains were used to preliminarily evaluate the antimicrobial activity of PSTO2 and its analogues, including Staphylococcus aureus (S. aureus) (ATCC® 6538), methicillin-resistant Staphylococcus aureus (MRSA) (NCTC® 12493), Enterococcus faecalis (E. faecalis) (NCTC® 12697), E. coli (ATCC® 8739), Klebsiella pneumonia (K. pneumonia) (ATCC® 43816), Pseudomonas aeruginosa (P. aeruginosa) (ATCC® CRM 9027), Acinetobacter baumanni (A. baumanni) (BAA® 747), and Candida albicans (C. albicans) (ATCC® 10231). In this study, the strains were cultured in Mueller–Hinton broth (MHB), nutrient broth (NB), and yeast–peptone–dextrose broth (YPD-B) correspondingly at 37 °C, with shaking at 120 rpm. Each peptide was dissolved from 128 μM to 1 μM and mixed with the bacterium at 5 × 10^5 CFU/mL. In this process, bacteria with culture medium were used as the growth control group; PBS was set up as the vehicle control group; sterile culture medium was used as the blank control group; and Norfloxacin at a concentration of 2 mg/mL and amphotericin B at a concentration of 1 mg/mL were set up as the positive control group for bacteria and fungi, respectively.
(§2) After being incubated for 24 h, a Synergy HT plate reader (Bio-Tek, Shoreline, WA, USA) was used to detect the absorbance of each well in the 96-well plate at λ = 550 nm. The concentration at which no visible turbidity could be recorded was the MIC value. Beginning from the MIC value, 10 µL of solution in each clear well was dropped on the sterile agar plates. The plate was checked the next day for colony formation, and the lowest concentration at which no colony growing was recorded as an MBC value.

E. coli (ATCC 8739) = format: cell-based, Escherichia coli
Excerpt: as §1, §2

MRSA (NCTC 12493) = format: cell-based, methicillin-resistant Staphylococcus aureus
Excerpt: as §1, §2

[2] = tested on: K. pneumonia (ATCC 43816); format: cell-based, Klebsiella pneumonia
Excerpt: as §1, §2

S. aureus (ATCC 6538) = format: cell-based, Staphylococcus aureus
Excerpt: as §1, §2

A. baumannii (BAA 747) = format: cell-based, Acinetobacter baumanni; conditions: BAA 747, 24 h
Excerpt: as §1, §2

C. albicans = format: cell-based, Candida albicans; conditions: 24 h
Excerpt: as §1, §2

horse red blood cells = format: cell-based
Experimental: To assess the haemolytic activity of PSTO2 and its analogues, 2% fresh defibrinated horse red blood cells (TCS Biosciences Ltd., Buckingham, UK) were acquired after being washed and resuspended in sterile PBS. Each peptide was dissolved in PBS to prepare solutions with concentrations ranging from 2 µM to 1024 µM. Subsequently, 100 µL of each peptide solution was mixed with 100 µL of the red blood cell suspension. The red blood cells treated with 1% triton X-100 and sterile PBS in equivalent volumes were set up as the positive and negative control groups, respectively. Then, all the samples were incubated at 37 °C for 2 h. Thereafter, the samples were centrifuged at 900× g for 10 min. Finally, 100 µL of supernatant of each sample was transferred into a 96-well plate, and the absorbance was recorded by a Synergy HT plate reader (Bio-Tek, Shoreline, WA, USA) at a wavelength of 570. The following equation was used to calculate haemolysis activity:Haemolysis activity = (Sample absorbance − Ab)/(Ap − Ab) × 100% where Ab refers to the mean value of absorbance of the negative control (incubated with PBS only), and Ap refers to the mean absorbance value of the positive control (incubated with triton X-100).

[3] = tested on: S. aureus (ATCC 6538) biofilm; format: cell-based, Staphylococcus aureus; conditions: ATCC 6538, 24 h
Experimental: (§3) To test the anti-biofilm ability of PSTO2 and its analogues, three types of microorganisms (S. aureus ATCC® 6538, E. coli ATCC® 8739, and MRSA NCTC® 12493) were chosen. Tryptic soy broth (TSB) and Lysogeny broth (LB) were used to culture microorganisms. The peptide was dissolved in an autoclaved PBS solution and diluted into concentrations ranging from 51,200 µM to 100 µM. One µL of peptide solution of each concentration was added into a 96-well plate with 100 µL bacterium at 5 × 10^5 CFU/mL. The plate was incubated at 37 °C for 24 h, with shaking at 200 rpm. After overnight incubation, the planktonic bacteria were washed up. Then, 100 µL of methanol was used to fix the biofilms onto the bottom, and 100 µL of 0.1% crystal violet solution (Sigma-Aldrich, Gillingham, UK) was added to each well to stain the biofilms. After drying, 160 µL of acetic acid (30% in deionised water, Sigma-Aldrich, UK) was added to each well to dissolve the shaded parts. The absorbance was detected with the Synergy HT plate reader at λ = 595 nm.
(§4) For the MBEC assay, 100 µL of the bacterium of 5 × 10^5 CFU/mL was transferred into an empty 96-well plate, and the plate was incubated at 37 °C for 24 h to obtain the biofilms primarily. Then, the peptide solution from 512 µM to 1 µM was transferred into a corresponding well, followed by 24 h incubation at 37 °C, with shaking at 200 rpm. After this, the plate was handled using the identical method to the plate in the MBIC assay, and the absorbance of each well was detected with the Synergy HT plate reader at λ = 595 nm. The minimum concentration at which the peptide can eradicate the existing biofilm was recorded as the MBEC value.

[4] = tested on: E. coli (ATCC 8739) biofilm; format: cell-based, Escherichia coli; conditions: ATCC 8739, 24 h
Experimental: as §3, §4

[5] = tested on: MRSA (ATCC 12493) biofilm; format: cell-based, methicillin-resistant Staphylococcus aureus; conditions: ATCC 12493, 24 h
Experimental: as §3, §4

[6] = clear wells plated on agar, no colony

| Compound | MBC ([1]; ATCC 9027, 24 h) | MIC ([1]; ATCC 9027, 24 h) | MBC (E. coli (ATCC 8739); ATCC 8739, 24 h) | MIC (E. coli (ATCC 8739); ATCC 8739, 24 h) | MBC (MRSA (NCTC 12493); NCTC 12493, 24 h) | MIC (MRSA (NCTC 12493); NCTC 12493, 24 h) | MBC (A. baumannii (BAA 747)) | MIC (A. baumannii (BAA 747)) | MBC ([2]; ATCC 43816, 24 h) | MIC ([2]; ATCC 43816, 24 h) | MBC (S. aureus (ATCC 6538); ATCC 6538, 24 h) | MIC (S. aureus (ATCC 6538); ATCC 6538, 24 h) | MBC (C. albicans) | MIC (C. albicans) | HC10 (horse red blood cells) | MBEC [3] | MBIC [3] | MBEC [4] | MBIC [4] | MBEC [5] | further results |
| --- | --- | --- | --- | --- | --- | --- | --- | --- | --- | --- | --- | --- | --- | --- | --- | --- | --- | --- | --- | --- | --- |
| CC[C@H](C)[C@H](NC(=O)CN)C(=O)NCC(=O)N[C@@H](C)C(=O)N[C@H](C(=O)N[C@@H](CC(C)C)C(=O)N[C@@H](CCCCN)C(=O)N[C@H](C(=O)N[C@@H](CC(C)C)C(=O)N[C@H](C(=O)N[C@H](C(=O)NCC(=O)N[C@@H](CC(C)C)C(=O)N1CCC[C@H]1C(=O)N[C@@H](C)C(=O)N[C@@H](CC(C)C)C(=O)N[C@H](C(=O)N[C@@H](CO)C(=O)N[C@@H](Cc1c[nH]c2ccccc12)C(=O)N[C@H](C(=O)N[C@@H](CCCCN)C(=O)N[C@@H](CCCNC(=N)N)C(=O)N[C@@H](CCCCN)C(=O)N[C@@H](CCCNC(=N)N)C(=O)N[C@@H](CCC(N)=O)C(=O)N[C@@H](CCC(N)=O)C(N)=O)[C@@H](C)CC)[C@@H](C)CC)[C@@H](C)O)[C@@H](C)O)C(C)C)C(C)C [Mellitin, melittin, reference compound] | – | – | – | – | – | – | – | – | – | – | – | – | – | – | – | – | – | – | – | – | MBC [1, 6]: 32 µM; MBC (E. coli (ATCC 8739); [6]): 4 µM; MBC (MRSA (NCTC 12493); [6]): 2 µM; MIC ([2]; 5 × 10^5 CFU/mL, 24 h, absorbance 550 nm): 32 µM; MBC [2, 6]: 32 µM; MBC (S. aureus (ATCC 6538); [6]): 5.7 µg/mL and 2 µM |
| CC[C@H](C)[C@H](NC(=O)[C@H](C)NC(=O)[C@@H](CCCCN)NC(=O)[C@@H]1CCCN1C(=O)[C@@H](NC(=O)[C@H](CC(C)C)NC(=O)[C@H](CO)NC(=O)[C@H](CC(C)C)NC(=O)[C@@H](N)Cc1ccccc1)[C@@H](C)CC)C(=O)N[C@H](CCCCN)C(=O)N[C@@H](C)C(=O)N[C@H](C(=O)N[C@@H](CO)C(=O)N[C@@H](C)C(=O)N[C@@H](CC(C)C)C(=O)N[C@@H](C)C(=O)N[C@@H](CCCCN)C(=O)N[C@H](CCCCN)C(=O)N[C@@H](CC(C)C)C(N)=O)C(C)C [Peptide D1] (H-FLSLIP[dK]AI[dK]AVSALAK[dK]L-NH2) | 32 µM | 32 µM | 32 µM | 32 µM | >128 µM | >128 µM | 32 µM | 32 µM | 128 µM | 128 µM | >128 µM | >128 µM | >128 µM | >128 µM | Not significant | – | – | – | – | – | – |
| CC[C@H](C)[C@H](NC(=O)[C@H](C)NC(=O)[C@@H](CCCCN)NC(=O)[C@@H]1CCCN1C(=O)[C@@H](NC(=O)[C@H](CC(C)C)NC(=O)[C@H](CO)NC(=O)[C@H](CC(C)C)NC(=O)[C@@H](N)Cc1ccccc1)[C@@H](C)CC)C(=O)N[C@H](CCCCN)C(=O)N[C@@H](C)C(=O)N[C@H](C(=O)N[C@H](CCCCN)C(=O)N[C@@H](C)C(=O)N[C@@H](CC(C)C)C(=O)N[C@@H](C)C(=O)N[C@H](CCCCN)C(=O)N[C@H](CCCCN)C(=O)N[C@@H](CC(C)C)C(N)=O)C(C)C [Peptide D2] (H-FLSLIP[dK]AI[dK]AV[dK]ALA[dK][dK]L-NH2) | 16 µM | 16 µM | 32 µM | 16 µM | >128 µM | >128 µM | 16 µM | 16 µM | 128 µM | 128 µM | >128 µM | >128 µM | >128 µM | >128 µM | Not significant | – | – | – | – | – | – |
| FLSLIPKAISAVSALAKHL-NH2 [Peptide 7K] | 32 µM | 32 µM | 8 µM | 8 µM | 8 µM | 4 µM | >128 µM | >128 µM | 8/8 μM | – | 4 µM | 4 µM | 64 µM | 32 µM | 21.97 | 32 µM | 16 µM | 64 µM | 16 µM | 32 µM | MBIC [5]: 4 µM |
| FLSLIPKAISAVSALAKKL-NH2 [Peptide 18K] | 64 µM | 32 µM | 4/4 μM | – | 4 µM | 4 µM | 32/32 μM | – | 16/16 μM | – | 4 µM | 2 µM | 128 µM | 32 µM | 20.59 | 32 µM | 8 µM | 64 µM | 32 µM | 32 µM | MBIC [5]: 4 µM |
